# US11426367B2, “Methods of treating substance abuse” (Perception Neuroscience, Inc., priority 2018, dated 2022)
# Key:
# Morphine Seizures = settings: Not blocked by naloxone; Kolesnikov et al., 1997; cited from earlier work
# [1] = test system: social defeat stress mice; assay: Tail suspension test (TST), social defeat stress model; format: in vivo; settings: 10 mg/kg i.p.
# Procedure: (§1) A social defeat stress model of depression was prepared by bringing C57/B6 male mice into contact with ICR male mice (large aggressive mice) for 10 consecutive days to apply a stress called a “social defeat stress” in accordance with the previous report (Non Patent Literature 19). […] Specifically, an increase in immobility time was found in each of a tail suspension test (TST) and a forced swimming test (FST).
# (§2) The preparation of the animal model of depression and the administration of the agent were specifically performed as described below (FIG. 3A). Male C57/B6 mice (7-week-old, Japan SLC, Inc., Hamamatsu, Japan) and ICR mice (9-week-old, Japan SLC, Inc., Hamamatsu, Japan) were used. The mice were given free access to water and feed. A social defeat stress was applied by housing one C57/B6 mouse with one ICR mouse for 10 days.
# (§3) The antidepressant effects of the agent were investigated by behavioral tests such as the TST, the PST, the LMT, and a 1% sucrose preference test (SPT) (FIG. 3A). The 1% sucrose preference test (SPT) was performed on 1 day and 6 days after the injection of ketamine. Each of the TST and the PST was performed on 2 days and 7 days after the injection of ketamine. The TST was performed as described below. First, the mice were taken out from cages, and then a small piece of an adhesive tape was bonded onto a portion approximately 2 cm away from the tip of the tail of the mice. A small hole was opened in the small piece, and the mice were each fixed upside down on a hook through the small hole. The immobility time of each mouse was recorded for 10 minutes. Mice were considered immobile only when they hung passively and completely motionless. The immobility time increases in a depressive state. The PST was performed as described below. First, the mice were placed individually in a cylinder (diameter: 23 cm; height: 31 cm) containing 15 cm of water, maintained at 22 to 24 deg C. The mice were tested in an automated forced-swimming apparatus using SCANET MV-40 ([…] Co., Ltd., Toyama, Japan). The immobility time was calculated as a value obtained by subtracting active time from total time, using the analysis software of the apparatus. Cumulative immobility time was recorded over 6 minutes during a test period. The LMT was performed as described below. First, the mice were placed in experimental cages (length×width×height: 560×560×330 mm). The locomotor activity of the mice was counted with SCANET MV-40, and the cumulative exercise of the mice was recorded for 60 minutes. The cages were cleaned between testing session. The immobility time increases in a depressive state. […] A spine density was quantitatively evaluated by observation with a KEYENCE microscope (BZ-9000, Osaka, Japan).
# [2] = test system: medial forebrain bundle self-stimulation in rats; assay: Intracranial self-stimulation (ICSS), frequency-rate procedure; settings: for ICSS, anhedonia: doses 10, 30 mg/kg, Present study; for ICSS frequency-rate response curve: rats, 3, 10 or 30 mg/kg i.p. 2 hours prior to test session, vs saline vehicle
# [3] = test system: cerebral metabolic rates of glucose; settings: healthy volunteers, Non Patent Literature 13, cited from earlier work; for cerebral metabolic rates of glucose (CMRglu), PET: S(+)-ketamine i.v. 15 mg for 5 min then 0.014 to 0.02 mg/kg/min for 53 min, R(−)-ketamine equimolar doses
# [4] = test system: social defeat stress mice; assay: Locomotion test (LMT), social defeat stress model; format: in vivo; settings: 10 mg/kg i.p., 2 days after injection
# Procedure: as §1
# The preparation of the animal model of depression and the administration of the agent were specifically performed as described below (FIG. 3A). Male C57/B6 mice (7-week-old, Japan SLC, Inc., Hamamatsu, Japan) and ICR mice (9-week-old, Japan SLC, Inc., Hamamatsu, Japan) were used. […]
# The antidepressant effects of the agent were investigated by behavioral tests such as the TST, the PST, the LMT, and a 1% sucrose preference test (SPT) (FIG. 3A). […] The immobility time of each mouse was recorded for 10 minutes. […] The immobility time was calculated as a value obtained by subtracting active time from total time, using the analysis software of the apparatus. Cumulative immobility time was recorded over 6 minutes during a test period. […] The locomotor activity of the mice was counted with SCANET MV-40, and the cumulative exercise of the mice was recorded for 60 minutes. […] A spine density was quantitatively evaluated by observation with a KEYENCE microscope (BZ-9000, Osaka, Japan).
# [5] = test system: social defeat stress mice; assay: 1% sucrose preference test (SPT), social defeat stress model; format: in vivo; settings: 10 mg/kg i.p.
# Procedure: as §1, §2, §3
# Control C57/B6 mice [6] = assay: Prepulse inhibition test in control mice; settings: control mice, 5, 10 or 20 mg/kg
# Procedure: PP69, PP73, PP77, and PP81 mean that stimuli at 69, 73, 77, and 81 dB for more than 20 milliseconds were presented 100 milliseconds before a 110-dB pulse, respectively. Data analysis was performed by Wilks Lambda, which is multivariate analysis of variance (Example 3).
# The prepulse inhibition test was performed using a startle response system (SR-LAB, SanDiego Instruments, San Diego, Calif., United States). The analysis of the results of prepulse inhibition was performed by multivariate analysis of variance (MANOVA), followed by a least significant difference test (LSD test). Data are presented as the mean plus minus standard error of the mean (n=10 to 12 mice/group). *p<0.05 and p<0.01 indicate significant differences as compared to a group injected with saline.
# [7] = test system: social defeat stress mice; assay: Forced swimming test (FST), social defeat stress model; format: in vivo; settings: 10 mg/kg i.p.
# Procedure: as §1, §2, §3
# Control C57/B6 mice [8] = assay: Conditioned place preference test (dependence test) in control mice; settings: control mice, 5, 10 or 20 mg/kg, injected on day 4, 6 and 8, test on day 11
# Procedure: 15-minute habituation was performed for 3 days. Then, 30-minute conditioning was performed on day 4 to day 10, and a behavioral evaluation test was performed on day 11. Saline was injected on day 5, day 7, and day 9. […] In each of the groups, the injection was performed three times, i.e., on day 4, day 6, and day 8. Saline means a group injected with saline.
# The administration of an agent was performed by the same methods as the methods described in Example 2.
# The place preference test was performed using a conditioned place preference test apparatus (BrainScienceIdea Co., Ltd., Osaka, Japan). The analysis of the results of the place preference test was performed by one-way analysis of variance (one-way ANOVA), followed by a least significant difference test (LSD test). Data are presented as the mean plus minus standard error of the mean (n=9 or 10 mice/group). *p<0.05 and **p<0.01 indicate significant differences as compared to a group injected with saline.
# [9] = 3 mg/kg i.p. 2 hours prior to test session, 10 rats
# [10] = 10 mg/kg i.p. 2 hours prior to test session, 10 rats
# [11] = 30 mg/kg i.p. 2 hours prior to test session, 10 rats
# [12] = baseline session before dosing on the 3 mg/kg test day, 10 rats
# [13] = baseline session before dosing on the 10 mg/kg test day, 10 rats
# [14] = baseline session before dosing on the 30 mg/kg test day, 10 rats
SMILES,"Morphine Seizures, dose (Morphine Seizures)",immobility time in the TST ([1]; 2 days after injection),immobility time in the TST ([1]; 7 days after injection),"M50, Test, mean log M50 frequency (SEM) [2, 9]","Threshold (T0), Test, mean log T0 frequency (SEM) [2, 9]","Threshold (T0), Test, mean log T0 frequency (SEM) [2, 10]","M50, Test, mean log M50 frequency (SEM) [2, 11]","Threshold (T0), Test, mean log T0 frequency (SEM) [2, 11]","M50, Baseline, mean log M50 frequency (SEM) [2, 12]","Threshold (T0), Baseline, mean log T0 frequency (SEM) [2, 12]","Threshold (T0), Baseline, mean log T0 frequency (SEM) [2, 13]","M50, Baseline, mean log M50 frequency (SEM) [2, 14]","Threshold (T0), Baseline, mean log T0 frequency (SEM) [2, 14]","ICSS, anhedonia [2]",ICSS frequency-rate response curve [2],"cerebral metabolic rates of glucose (CMRglu), PET [3]",locomotion in the LMT [4],sucrose consumption preference in the SPT ([5]; 1 day after injection),sucrose consumption preference in the SPT ([5]; 6 days after injection),prepulse inhibition (Control C57/B6 mice [6]),further results
CN[C@]1(c2ccccc2Cl)CCCCC1=O [S(+)-ketamine],0.03 mg/kg,markedly reduced the immobility time,significantly reduced the immobility time,1.98 log/Hz,1.88 log/Hz,1.90 log/Hz,2.07 log/Hz,1.95 log/Hz,1.97 (0.02) log/Hz,1.86 (0.02) log/Hz,1.87 (0.02) log/Hz,1.98 (0.01) log/Hz,1.87 (0.02) log/Hz,"10, 30 anhedonia",significant downward shift in the stimulation-frequency curve,increased cerebral metabolic rates of glucose,no difference in locomotion,sucrose consumption preference significantly increased,significantly restored the sucrose consumption preference,disrupted prepulse inhibition in a dose-dependent manner,"M50, Test, mean log M50 frequency ([2]; 15 mg/kg (so in the source) i.p., 10 rats): 2.00 log/Hz; M50, Baseline, mean log M50 frequency (SEM) ([2]; baseline session before dosing on the 15 mg/kg (so in the source) test day, 10 rats): 1.97 (0.01) log/Hz; immobility time in the FST ([7]; 2 days after injection): markedly reduced the immobility time; immobility time in the FST ([7]; 7 days after injection): significantly reduced the immobility time; CPP score (conditioned place preference test) (Control C57/B6 mice [8]): increased the CPP score in a dose-dependent manner"
CN[C@@]1(c2ccccc2Cl)CCCCC1=O.Cl [R(−)-ketamine],0.3 mg/kg,markedly reduced the immobility time,significantly reduced the immobility time,1.98 (0.01) log/Hz,1.88 (0.02) log/Hz,1.93 (0.03) log/Hz,1.99 (0.02) log/Hz,1.90 (0.02) log/Hz,2.00 (0.02) log/Hz,1.91 (0.02) log/Hz,1.91 (0.03) log/Hz,1.98 (0.02) log/Hz,1.89 (0.02) log/Hz,"10, 30 - no anhedonia",did not significantly alter behavior of rats,tended to decrease CMRglu,no difference in locomotion,sucrose consumption preference significantly increased,significantly restored the sucrose consumption preference,did not disrupt prepulse inhibition,"M50, Test, mean log M50 frequency (SEM) [2, 10]: 2.02 (0.02) log/Hz; M50, Baseline, mean log M50 frequency (SEM) [2, 13]: 2.00 (0.02) log/Hz; psychotic symptoms ([3]; doses equimolar to psychotomimetic doses of S(+)-ketamine): did not produce psychotic symptoms; immobility time in the FST ([7]; 2 days after injection): markedly reduced the immobility time; immobility time in the FST ([7]; 7 days after injection): significantly reduced the immobility time; CPP score (conditioned place preference test) (Control C57/B6 mice [8]): did not increase the CPP score"
